The text below walks through data of patent publication US11319324B2, “Pyrazolo-pyrrolo-pyrimidine-dione derivatives as P2X3 inhibitors” (Bayer Aktiengesellschaft, priority 2017, dated 2022).

Structures can show the parent of a compound that is named as a salt.

This test deals with T1, human P2X3 receptor (Homo sapiens, UniProt P56373).
T1 sequence (P56373 1-397): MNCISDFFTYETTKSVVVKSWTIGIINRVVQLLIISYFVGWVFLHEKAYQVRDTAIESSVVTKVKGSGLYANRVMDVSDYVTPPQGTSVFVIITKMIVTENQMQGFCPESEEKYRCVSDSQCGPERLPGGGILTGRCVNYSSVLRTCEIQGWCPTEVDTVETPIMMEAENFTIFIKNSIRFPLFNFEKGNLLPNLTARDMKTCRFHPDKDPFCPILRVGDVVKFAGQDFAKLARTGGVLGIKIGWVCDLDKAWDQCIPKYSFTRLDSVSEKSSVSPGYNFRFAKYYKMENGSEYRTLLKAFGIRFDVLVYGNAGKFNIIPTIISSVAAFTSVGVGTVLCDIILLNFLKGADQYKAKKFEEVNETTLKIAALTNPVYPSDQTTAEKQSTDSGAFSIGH
Briefly: Intracellular calcium measurement to assess antagonist activity at human P2X3 receptors (hP2X3 CHO), photina luminescence. It counts as cell-based. Also on record: expressed in transfected cells; host or cells: Chinese hamster ovary (CHO) cells. The note with it: column 2), CHO cells, agonist α,β-methylene-ATP at EC50. Here is the method:
2) Intracellular Calcium Measurement to Assess Antagonist Activity at Human P2X3 Receptors (hP2X3 CHO)
The determination of antagonistic activity at the P2X3 receptor of the compounds of the invention was performed by use of a recombinant cell line. This cell line derives originally from the Chinese hamster ovary (CHO) cell line (Tjio J. H.; Puck T. T., 1958, J. Exp. Med. 108: 259-271). The cell line is stably transfected with the human P2X3 receptor and a calcium-sensitive photoprotein, mitochondrial photina, which, after reconstitution with the cofactor coelenterazine, emits light in dependence of calcium binding [Bovolenta S, Foti M, Lohmer S, Corazza S., J Biomol Screen. 2007 August; 12(5):694-704]. The strength of the photina luminescence signal corresponds to the level of receptor activation upon agonist binding. An inhibitor would decrease the signal depending on its potency and concentration. Bioluminescence was detected using a suitable luminometer [Milligan G, Marshall F, Rees S, Trends in Pharmacological Sciences 17,235-237 (1996)].
On the day before the assay, the cells were plated out in culture medium (DMEM/F12 (PAN, P04-41451), 10% FCS) in 384-well microtiter plates and kept in a cell incubator (96% humidity, 5% v/v CO2, […]). On the day of the assay medium was replaced by 2 mM Ca-tyrode buffer containing 5 μg/ml coelenterazine. Plates were incubated for 3 hours at 37° C. (96% humidity, 5% v/v CO2). […] The resulting light signal was measured immediately in the luminometer.

For the compound `O=C(Cn1c2c(c(=O)n3nc(-c4ccncc4)cc13)CN(Cc1cccnc1)C2=O)Nc1ccc(F)cn1` [Example 131], the IC50 stood at 14 nM.
Take `O=C(Cn1c2c(c(=O)n3nc(-c4ccncc4)cc13)CN(CCN1CCOCC1)C2=O)Nc1ccc(F)cn1` [Example 132]: the 50% inhibitory concentration (IC50) came out at 18 nM.
In the case of `CC(C)N1Cc2c(n(CC(=O)Nc3ccc(F)cn3)c3cc(Cc4ccccn4)nn3c2=O)C1=O` [Example 133] it was 22 nM.
For `CCc1cc2n(CC(=O)Nc3ccc(F)cn3)c3c(c(=O)n2n1)CN(C(C)(C)CO)C3=O` [Example 136, 2-[2-ethyl-6-(1-hydroxy-2-methylpropan-2-yl)-5,8-dioxo-5,6,7,8-tetrahydro-4H-pyrazolo[1,5-a]pyrrolo[3,4-d]pyrimidin-4-yl]-N-(5-fluoropyridin-2-yl)acetamide], the IC50 was found to be 56 nM.
In the case of `CC(C)N1Cc2c(n(CC(=O)Nc3ccc(F)cn3)c3cc(C4=COCC4)nn3c2=O)C1=O` [Example 144, 2-[2-(4,5-dihydrofuran-3-yl)-5,8-dioxo-6-(propan-2-yl)-5,6,7,8-tetrahydro-4H-pyrazolo[1,5-a]pyrrolo[3,4-d]pyrimidin-4-yl]-N-(5-fluoropyridin-2-yl)acetamide] it was 36 nM.
With `CC(C)N1Cc2c(n(CC(=O)Nc3ccc(F)cn3)c3cc(C4=CCS(=O)(=O)CC4)nn3c2=O)C1=O` [Example 145, 2-[2-(1,1-dioxo-1,2,3,6-tetrahydro-1lambda^6-thiopyran-4-yl)-5,8-dioxo-6-(propan-2-yl)-5,6,7,8-tetrahydro-4H-pyrazolo[1,5-a]pyrrolo[3,4-d]pyrimidin-4-yl]-N-(5-fluoropyridin-2-yl)acetamide] the figure was 33 nM.
With `N#Cc1cc2n(CC(=O)Nc3ccc(F)cn3)c3c(c(=O)n2n1)CN(CCN1CCOCC1)C3=O` [Example 147] the figure was 225 nM; with `COC[C@H](C)N1Cc2c(n(CC(=O)Nc3ccc(F)cn3)c3cc(C#N)nn3c2=O)C1=O` [Example 148], 225 nM; with `Cc1cccnc1-c1cc2n(CC(=O)Nc3ccc(F)cn3)c3c(c(=O)n2n1)CN(C(C)C)C3=O` [Example 163], 398 nM.
Take `Cc1cnc(-c2cc3n(CC(=O)Nc4ccc(F)cn4)c4c(c(=O)n3n2)CN(C(C)C)C4=O)c(C)c1` [Example 166, 2-[2-(3,5-dimethylpyridin-2-yl)-5,8-dioxo-6-(propan-2-yl)-5,6,7,8-tetrahydro-4H-pyrazolo[1,5-a]pyrrolo[3,4-d]pyrimidin-4-yl]-N-(5-fluoropyridin-2-yl)acetamide]: the IC50 came to 5 nM.
With `CNc1cc2n(CC(=O)Nc3ccc(F)cn3)c3c(c(=O)n2n1)CN(C(C)C)C3=O` [Example 174] the figure was 59 nM; with `CNc1cc2n(CC(=O)Nc3ccc(F)cn3)c3c(c(=O)n2n1)CN([C@@H](C)COC)C3=O` [Example 179], 120 nM; with `COc1ccccc1NC(=O)c1cc2n(CC(=O)Nc3ccc(F)cn3)c3c(c(=O)n2n1)CN(C(C)C)C3=O` [Example 202], 135 nM.
Turning to `CC(C)N1Cc2c(n(CC(=O)Nc3ccc(F)cn3)c3cc(C(=O)Nc4ccccc4Cl)nn3c2=O)C1=O` [Example 203], the 50% inhibitory concentration (IC50) stood at 25 nM.
For the compound `Cc1ccccc1NC(=O)c1cc2n(CC(=O)Nc3ccc(F)cn3)c3c(c(=O)n2n1)CN(C(C)C)C3=O` [Example 204], the IC50 amounted to 36 nM.
In the case of `CC(C)N1Cc2c(n(CC(=O)Nc3ccc(F)cn3)c3cc(C(=O)Nc4cccc(F)c4)nn3c2=O)C1=O` [Example 206] it was 47 nM; in that of `CC(C)N1Cc2c(n(CC(=O)Nc3ccc(F)cn3)c3cc(C(=O)Nc4ccc(F)cc4)nn3c2=O)C1=O` [Example 208], 28 nM; in that of `CC(C)N1Cc2c(n(CC(=O)Nc3ccc(F)cn3)c3cc(C(=O)Nc4ncco4)nn3c2=O)C1=O` [Example 209], 123 nM.
For the compound `CC(C)N1Cc2c(n(CC(=O)Nc3ccc(F)cn3)c3cc(C(=O)Nc4ncccn4)nn3c2=O)C1=O` [Example 210], the IC50 worked out at 28 nM.
In the case of `CC(C)N1Cc2c(n(CC(=O)Nc3ccc(F)cn3)c3cc(C(=O)Nc4ccon4)nn3c2=O)C1=O` [Example 211] it was 26 nM; in that of `CC(C)N1Cc2c(n(CC(=O)Nc3ccc(F)cn3)c3cc(C(=O)Nc4cccnn4)nn3c2=O)C1=O` [Example 212], 22 nM; in that of `CC(C)N1Cc2c(n(CC(=O)Nc3ccc(F)cn3)c3cc(C(=O)Nc4ccc(Cl)cn4)nn3c2=O)C1=O` [Example 213], 93 nM.
With `COC[C@H](C)N1Cc2c(n(CC(=O)Nc3ccc(F)cn3)c3cc(C(=O)Nc4ccon4)nn3c2=O)C1=O` [Example 215] the figure was 63 nM; with `COC[C@H](C)N1Cc2c(n(CC(=O)Nc3ccc(F)cn3)c3cc(C(=O)Nc4ncccn4)nn3c2=O)C1=O` [Example 217], 70 nM.
Take `O=C(Cn1c2c(c(=O)n3nc(C(=O)Nc4ccccc4F)cc13)CN(C1CCOCC1)C2=O)Nc1ccc(F)cn1` [Example 219]: the IC50 amounted to 180 nM.
In the case of `O=C(Cn1c2c(c(=O)n3nc(C(=O)Nc4ccccc4F)cc13)CN(CCN1CCOCC1)C2=O)Nc1ccc(F)cn1` [Example 220] it was 45 nM; in that of `COC[C@H](C)N1Cc2c(n(CC(=O)Nc3ccc(F)cn3)c3cc(C(=O)Nc4ccccc4F)nn3c2=O)C1=O` [Example 221], 30 nM.
With `CC(C)N1Cc2c(n(CC(=O)Nc3ccc(F)cn3)c3cc(C(=O)NCCCO)nn3c2=O)C1=O` [Example 224] the figure was 145 nM.
`CC(C)N1Cc2c(n(CC(=O)Nc3ccc(F)cn3)c3cc(C4CN(C(=O)OC(C)(C)C)C4)nn3c2=O)C1=O` [Example 230, tert-butyl 3-[4-{2-[(5-fluoropyridin-2-yl)amino]-2-oxoethyl}-5,8-dioxo-6-(propan-2-yl)-5,6,7,8-tetrahydro-4H-pyrazolo[1,5-a]pyrrolo[3,4-d]pyrimidin-2-yl]azetidine-1-carboxylate]: the IC50 worked out at 115 nM.
For `CC(C)N1Cc2c(n(CC(=O)Nc3ccc(F)cn3)c3cc(CN4CCCC4=O)nn3c2=O)C1=O` [Example 232, 2-{5,8-dioxo-2-[(2-oxopyrrolidin-1-yl)methyl]-6-(propan-2-yl)-5,6,7,8-tetrahydro-4H-pyrazolo[1,5-a]pyrrolo[3,4-d]pyrimidin-4-yl}-N-(5-fluoropyridin-2-yl)acetamide], the half-inhibitory concentration (IC50) was 53 nM.
With `CCc1cc2n(CC(=O)Nc3ccc(F)cn3)c3c(c(=O)n2n1)CN(C1CCNCC1)C3=O` [Example 237] the figure was 1950 nM.
As to `CC(C)N1Cc2c(n(CC(=O)Nc3ccc(F)cn3)c3cc(N)nn3c2=O)C1=O` [Example 241, 2-[2-amino-5,8-dioxo-6-(propan-2-yl)-5,6,7,8-tetrahydro-4H-pyrazolo[1,5-a]pyrrolo[3,4-d]pyrimidin-4-yl]-N-(5-fluoropyridin-2-yl)acetamide hydrochloride (1:1)], the IC50 was determined as 625 nM.
With `CCc1cc2n(CC(=O)Nc3ccc(F)cn3)c3c(c(=O)n2n1)CN(CC1CNC1)C3=O` [Example 242] the figure was 585 nM; with `CCc1cc2n(CC(=O)Nc3ccc(F)cn3)c3c(c(=O)n2n1)CN(C1CNC1)C3=O` [Example 243], 230 nM; with `CCc1cc2n(CC(=O)Nc3ccc(F)cn3)c3c(c(=O)n2n1)CN(C1CCN(C2CCC2)C1)C3=O` (stereo not drawn) [Example 254], 1150 nM.
Regarding `CC(C)N1Cc2c(n(CC(=O)Nc3ccc(F)cn3)c3cc(C4CN(C)C4)nn3c2=O)C1=O` [Example 262], the half-inhibitory concentration (IC50) came out at 127 nM.
In the case of `CCc1cc2n(CC(=O)Nc3ccc(F)cn3)c3c(c(=O)n2n1)CN(CC1CN(C(C)=O)C1)C3=O` [Example 268] it was 580 nM; in that of `CCc1cc2n(CC(=O)Nc3ccc(F)cn3)c3c(c(=O)n2n1)CN(C1CN(C(C)=O)C1)C3=O` [Example 269], 1500 nM.
In the case of `CCc1cc2n(CC(=O)Nc3ccc(F)cn3)c3c(c(=O)n2n1)CN(C1CN(S(C)(=O)=O)C1)C3=O` [Example 273], the concentration for half-maximal inhibition (IC50) turned out to be 565 nM.
With `CCc1cc2n(CC(=O)Nc3ccc(F)cn3)c3c(c(=O)n2n1)CN(CC(=O)N1CCOCC1)C3=O` [Example 291, 2-{2-ethyl-6-[2-(morpholin-4-yl)-2-oxoethyl]-5,8-dioxo-5,6,7,8-tetrahydro-4H-pyrazolo[1,5-a]pyrrolo[3,4-d]pyrimidin-4-yl}-N-(5-fluoropyridin-2-yl)acetamide] the figure was 415 nM; with `CCc1cc2n(CC(=O)Nc3ccc(F)cn3)c3c(c(=O)n2n1)CN(CC(=O)N(C)CC1CC1)C3=O` [Example 293], 240 nM; with `CCc1cc2n(CC(=O)Nc3ccc(F)cn3)c3c(c(=O)n2n1)CN(CC(=O)N(C)C1CC1)C3=O` [Example 294], 247 nM.
